Results: BindingDB's records for doi:10.3109/14756366.2012.712516 (Dumlupinar University, 2013)
pIC50, pKi: −log10 of the molar value.

Tests used:
[1] = target: T1, Carbonic anhydrase 2 (Homo sapiens, UniProt P00918); assay: CA Activity Assay
[2] = target: T2, Carbonic anhydrase 1 (Homo sapiens, UniProt P00915); assay: CA Activity Assay
[3] = target: T1, Carbonic anhydrase 2; assay: Esterase Activity Assay; conditions: pH 7.4
Experimental: (§1) The enzymatic reaction, in a total volume of 3.0 mL, contained 1.4 mL of 0.05 M Tris-SO4 buffer (pH 7.4), 1 mL of 3 mM 4-nitrophenylacetate, 0.5 mL H2O and 0.1 mL enzyme solution.

[4] = target: T2, Carbonic anhydrase 1; assay: Esterase Activity Assay; conditions: pH 7.4
Experimental: as §1

[5] = target: T1, Carbonic anhydrase 2; assay: Hydratase Activity Assay
[6] = target: T2, Carbonic anhydrase 1; assay: Hydratase Activity Assay

T2 sequence (P00915 whole entry): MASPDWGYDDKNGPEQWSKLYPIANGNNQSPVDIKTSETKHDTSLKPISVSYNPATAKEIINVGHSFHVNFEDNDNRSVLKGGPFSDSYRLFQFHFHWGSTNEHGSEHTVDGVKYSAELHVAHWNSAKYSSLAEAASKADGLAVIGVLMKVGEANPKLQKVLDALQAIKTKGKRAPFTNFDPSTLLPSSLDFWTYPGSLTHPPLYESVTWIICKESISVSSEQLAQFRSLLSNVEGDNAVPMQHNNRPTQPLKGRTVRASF

pKi [1]: 5.52 | pKi [2]: 5.85 | pIC50 [3]: 5.52 | pIC50 [4]: 5.85 | pIC50 [5]: 6.40 | pIC50 [6]: 5.92
Structure (SMILES): NS(=O)(=O)c1nnc(NC(=O)c2nn(-c3cccc([N+](=O)[O-])c3)c(-c3ccccc3)c2C(=O)c2ccccc2)s1 [N-[5-(aminosulfonyl)-1,3,4-thiadiazol-2-yl]-4-benzoyl-1-(3-nitrophenyl)-5-phenyl-1H-pyrazole-3-carboxamide (1)]
